Data on 2 compounds can be found in publication PMC2818873 (Bioorganic & medicinal chemistry, 2009).

Test [1] relates to folyl poly-γ-glutamate synthetase (FPGS). The note with it: cited from earlier work.
The next test deals with T1, P. carinii DHFR (Pneumocystis carinii, UniProt P16184).
T1 sequence (P16184 1-206): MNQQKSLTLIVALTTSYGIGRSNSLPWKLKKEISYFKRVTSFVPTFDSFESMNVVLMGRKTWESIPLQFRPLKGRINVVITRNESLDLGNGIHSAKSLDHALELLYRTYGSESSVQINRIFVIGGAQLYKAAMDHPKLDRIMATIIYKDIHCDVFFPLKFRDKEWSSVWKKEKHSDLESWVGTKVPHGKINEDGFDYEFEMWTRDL
In kind it is biochemical. The note with it: IC50 rat liver DHFR / IC50 P. carinii DHFR.

Consider `Cc1c(Sc2ccc(C(=O)N[C@@H](CCC(=O)O)C(=O)O)cc2)[nH]c2nc(N)nc(N)c12` [Compound 4], for which, in test [1], the FPGS substrate activity result is “reasonable FPGS substrate activity”.
As for `Cc1c(Sc2cccc3ccccc23)oc2nc(N)nc(N)c12` [Compound 6, 2,4-Diamino-5-methyl-6-(1-naphthylthio)furo[2,3-d]pyrimidine], the Selectivity ratio rl/pc on P. carinii DHFR is more than 10.
